Measured values: US8703776B2 (Cymabay Therapeutics, Inc., priority 2011, dated 2014)

Target: T1, human GPR131 (Homo sapiens, UniProt Q8TDU6)
T1 construct: expressed in transfected cells
T1 sequence (Q8TDU6 1-330): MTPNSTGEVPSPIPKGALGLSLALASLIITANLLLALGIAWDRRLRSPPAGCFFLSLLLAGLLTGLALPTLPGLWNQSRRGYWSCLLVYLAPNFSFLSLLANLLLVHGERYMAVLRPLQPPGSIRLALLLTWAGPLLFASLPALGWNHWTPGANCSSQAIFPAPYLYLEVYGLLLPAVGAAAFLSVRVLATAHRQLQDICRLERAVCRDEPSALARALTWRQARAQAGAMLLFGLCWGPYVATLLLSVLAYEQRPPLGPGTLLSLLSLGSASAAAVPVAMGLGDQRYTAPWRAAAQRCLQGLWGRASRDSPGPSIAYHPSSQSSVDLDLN
Assay: Stimulation of cAMP in stable cell line expressing human GPR131 (FRET cAMP kit)
Type: cell-based
Details: 0.5 h; 1.1 μM compound, relative to maximal stimulatory activity of lithocholic acid at 3.3 μM; 30 minutes at 37° C.; read-out: Percent Activity @ 1.1 μM (of 3.3 uM LCA) (%)
Procedure: This assay was developed using a stable cell line expressing human GPR131.
To measure cAMP activity in response to GPR131 agonists, GPR131 cells suspended in DMEM/F12 medium with 1 mM IBMX were seeded in 384 well plates at 5000 cells per well. After incubating with test compounds at 37° C. for 30 minutes cAMP was measured using a fluorescene resonance energy transfer cAMP kit from Cis Bio (Bedford, Mass.) according to the manufacturer's instructions. Briefly, cells were lysed, and cAMP levels determined by competitive immunoassay using D2 labeled cAMP, and europium cryptate tagged anti cAMP antibody. Decreases in the FRET signal (fluorescence ratio (665 nm/620 […]) correspond to increases in intracellular cAMP levels.
Activities of test compounds in Table 1 below are expressed as % activity at 1.1 μM compound compared to the maximal stimulatory activity of lithocholic acid (LCA) (determined at 3.3 μM LCA)

SMILES | activation at 1.1 µM
Cc1nn(C)cc1CN(C)Cc1cnc(SCc2c(F)ccc(F)c2F)n1-c1ccc(F)cc1 [Compound 506, 1-(1,3-Dimethyl-1H-pyrazol-4-yl)-N-((1-(4-fluorophenyl)-2-((2,3,6-trifluorobenzyl)thio)-1H-imidazol-5-yl)methyl)-N-methylmethanamine] | 100%
COc1ccc(CN(C)C(=O)c2cnc(SCc3c(F)ccc(F)c3F)n2-c2ccc(F)cc2)cc1OC [Compound 507, N-(3,4-Dimethoxybenzyl)-1-(4-fluorophenyl)-N-methyl-2-((2,3,6-trifluorobenzyl)thio)-1H-imidazole-5-carboxamide] | 93%
Cc1nn(C)cc1CNC(=O)c1cnc(SCc2c(F)ccc(F)c2F)n1-c1ccc(F)cc1 [Compound 508, N-((1,3-Dimethyl-1H-pyrazol-4-yl)methyl)-1-(4-fluorophenyl)-2-((2,3,6-trifluorobenzyl)thio)-1H-imidazole-5-carboxamide] | 82%
CCN(Cc1cn(C)nc1C)C(=O)c1cnc(SCc2c(F)ccc(F)c2F)n1-c1ccc(F)cc1 [Compound 519, N-((1,3-Dimethyl-1H-pyrazol-4-yl)methyl)-N-ethyl-1-(4-fluorophenyl)-2-((2,3,6-trifluorobenzyl)thio)-1H-imidazole-5-carboxamide] | 100%
CN(Cc1cnn(C)c1)C(=O)c1cnc(SCc2c(F)ccc(F)c2F)n1-c1ccc(F)cc1 [Compound 520, 1-(4-Fluorophenyl)-N-methyl-N-((1-methyl-1H-pyrazol-4-yl)methyl)-2-((2,3,6-trifluorobenzyl)thio)-1H-imidazole-5-carboxamide] | 98%
Cc1nc(C)c(CN(C)C(=O)c2cnc(SCc3c(F)ccc(F)c3F)n2-c2ccc(F)cc2)s1 [Compound 522, N-((2,4-Dimethylthiazol-5-yl)methyl)-1-(4-fluorophenyl)-N-methyl-2-((2,3,6-trifluorobenzyl)thio)-1H-imidazole-5-carboxamide] | 100%
Cc1nn(C)cc1CN(C)C(=O)c1cnc(CCc2c(F)ccc(F)c2F)n1-c1ccc(F)cc1 [Compound 523, N-((1,3-Dimethyl-1H-pyrazol-4-yl)methyl)-1-(4-fluorophenyl)-N-methyl-2-(2,3,6-trifluorophenethyl)-1H-imidazole-5-carboxamide] | 96%
Cc1nn(C)cc1CN(C)C(=O)c1cnc(SCC(=O)c2ccccc2)n1-c1ccc(F)cc1 [Compound 525, N-((1,3-Dimethyl-1H-pyrazol-4-yl)methyl)-1-(4-fluorophenyl)-N-methyl-2-((2-oxo-2-phenylethyl)thio)-1H-imidazole-5-carboxamide] | 96%
Cc1nn(C)cc1C(C)N(C)C(=O)c1cnc(SCc2c(F)ccc(F)c2F)n1-c1ccc(F)cc1 (centres unmarked) [Compound 526, N-(1-(1,3-Dimethyl-1H-pyrazol-4-yl)ethyl)-1-(4-fluorophenyl)-N-methyl-2-((2,3,6-trifluorobenzyl)thio)-1H-imidazole-5-carboxamide] | 96%
CN(Cc1ccncc1)C(=O)c1cnc(CCc2c(F)ccc(F)c2F)n1-c1ccc(F)cc1 [Compound 528, 1-(4-Fluorophenyl)-N-methyl-N-(pyridin-4-ylmethyl)-2-(2,3,6-trifluorophenethyl)-1H-imidazole-5-carboxamide] | 95%
Fc1ccc(-n2c(COCc3ccncc3)cnc2SCc2c(F)ccc(F)c2F)cc1 [Compound 530, 4-(((1-(4-Fluorophenyl)-2-((2,3,6-trifluorobenzyl)thio)-1H-imidazol-5-yl)methoxy)methyl)pyridine] | 100%
Cc1nn(C)cc1CNCc1cnc(SCc2c(F)ccc(F)c2F)n1-c1ccc(F)cc1 [Compound 531, 1-(1,3-Dimethyl-1H-pyrazol-4-yl)-N-((1-(4-fluorophenyl)-2-((2,3,6-trifluorobenzyl)thio)-1H-imidazol-5-yl)methyl)methanamine] | 84%
CN(Cc1ccncc1)C(=O)c1cnc(CCc2ccccc2F)n1-c1ccc(F)cc1 [Compound 538, 2-(2-Fluorophenethyl)-1-(4-fluorophenyl)-N-methyl-N-(pyridin-4-ylmethyl)-1H-imidazole-5-carboxamide] | 90%
O=C(c1cnc(SCc2c(F)cccc2Cl)n1-c1ccc(F)cc1)N1CCCC1c1ccncc1 (centres unmarked) [Compound 539, (2-((2-Chloro-6-fluorobenzyl)thio)-1-(4-fluorophenyl)-1H-imidazol-5-yl)(2-(pyridin-4-yl)pyrrolidin-1-yl)methanone] | 95%
Cc1nn(C)cc1CN(C)C(=O)c1cnc(SCc2c(F)cc(C(=O)OC(C)(C)C)cc2F)n1-c1ccc(F)cc1 [Compound 542, tert-butyl 4-(((5-(((1,3-Dimethyl-1H-pyrazol-4-yl)methyl)(methyl)carbamoyl)-1-(4-fluorophenyl)-1H-imidazol-2-yl)thio)methyl)-3,5-difluorobenzoate] | 100%
Cc1nn(C)cc1CN(C)C(=O)c1cnc(SCc2ccccc2Cl)n1-c1ccc(F)cc1 [Compound 549, 2-((2-Chlorobenzyl)thio)-N-((1,3-dimethyl-1H-pyrazol-4-yl)methyl)-1-(4-fluorophenyl)-N-methyl-1H-imidazole-5-carboxamide] | 98%
Cc1nn(C)cc1CN(C)C(=O)c1cnc(SCc2ncccc2Cl)n1-c1ccc(F)cc1 [Compound 551] | 99%
Cc1nc(CSc2ncc(C(=O)N(C)Cc3cn(C)nc3C)n2-c2ccc(F)cc2)no1 [Compound 552, N-((1,3-Dimethyl-1H-pyrazol-4-yl)methyl)-1-(4-fluorophenyl)-N-methyl-2-(((5-methyl-1,2,4-oxadiazol-3-yl)methyl)thio)-1H-imidazole-5-carboxamide] | 99%
Cc1nn(C)cc1CN(C)C(=O)c1cnc(SCc2c(F)cccc2Cl)n1-c1ccccc1 [Compound 554, 2-((2-Chloro-6-fluorobenzyl)thio)-N-((1,3-dimethyl-1H-pyrazol-4-yl)methyl)-N-methyl-1-phenyl-1H-imidazole-5-carboxamide] | 99%

Other lines, results leading:

activation at 1.1 µM | SMILES
100% | CN(Cc1ccncc1)C(=O)c1cnc(SCc2c(F)ccc(F)c2F)n1-c1ccc(F)cc1 [Compound 518, 1-(4-Fluorophenyl)-N-methyl-N-(pyridin-4-ylmethyl)-2-((2,3,6-trifluorobenzyl)thio)-1H-imidazole-5-carboxamide]
100% | Cc1nn(C)cc1CN(C)C(=O)c1cnc(SCc2c(F)cccc2Cl)n1-c1ccc(F)cc1 [Compound 532, 2-((2-Chloro-6-fluorobenzyl)thio)-N-((1,3-dimethyl-1H-pyrazol-4-yl)methyl)-1-(4-fluorophenyl)-N-methyl-1H-imidazole-5-carboxamide]
100% | CN(Cc1ccncc1)C(=O)c1cnc(SCc2c(F)cccc2Cl)n1-c1ccc(F)cc1 [Compound 533, 2-((2-Chloro-6-fluorobenzyl)thio)-1-(4-fluorophenyl)-N-methyl-N-(pyridin-4-ylmethyl)-1H-imidazole-5-carboxamide]
98% | Cc1cc(CN(C)C(=O)c2cnc(SCc3ccccc3Cl)n2-c2ccc(F)cc2)ccn1 [Compound 550, 2-((2-Chlorobenzyl)thio)-1-(4-fluorophenyl)-N-methyl-N-((2-methylpyridin-4-yl)methyl)-1H-imidazole-5-carboxamide]
100% | Cc1nn(C)cc1CN(C)C(=O)c1cnc(SCc2c(F)cccc2Cl)n1-c1ccc(Cl)cc1 [Compound 553, 2-((2-Chloro-6-fluorobenzyl)thio)-1-(4-chlorophenyl)-N-((1,3-dimethyl-1H-pyrazol-4-yl)methyl)-N-methyl-1H-imidazole-5-carboxamide]
100% | CN(Cc1ccncc1)C(=O)c1cnc(SCc2c(F)cccc2Cl)n1-c1ccccc1 [Compound 555, 2-((2-Chloro-6-fluorobenzyl)thio)-N-methyl-1-phenyl-N-(pyridin-4-ylmethyl)-1H-imidazole-5-carboxamide]
99% | CN(Cc1ccncc1)C(=O)c1cnc(SCc2c(F)cccc2Cl)n1-c1ccc(Cl)cc1 [Compound 556, 2-((2-Chloro-6-fluorobenzyl)thio)-1-(4-chlorophenyl)-N-methyl-N-(pyridin-4-ylmethyl)-1H-imidazole-5-carboxamide]
95% | CN(Cc1ccncc1)C(=O)c1cnc(SCc2c(Cl)cccc2Cl)n1-c1ccc(F)cc1 [Compound 561, 2-((2,6-Dichlorobenzyl)thio)-1-(4-fluorophenyl)-N-methyl-N-(pyridin-4-ylmethyl)-1H-imidazole-5-carboxamide]
82% | Cc1ccccc1CSc1ncc(C(=O)N(C)Cc2ccncc2)n1-c1ccc(F)cc1 [Compound 562, 1-(4-Fluorophenyl)-N-methyl-2-((2-methylbenzyl)thio)-N-(pyridin-4-ylmethyl)-1H-imidazole-5-carboxamide]
98% | Cc1ccc(-n2c(C(=O)N(C)Cc3ccncc3)cnc2SCc2c(F)cccc2Cl)cc1 [Compound 563, 2-((2-Chloro-6-fluorobenzyl)thio)-N-methyl-N-(pyridin-4-ylmethyl)-1-(p-tolyl)-1H-imidazole-5-carboxamide]
